For 40 compounds, Ki results are on record in ChEMBL document CHEMBL4819072, “Radioligand and computational insight in structure - Activity relationship of saccharin derivatives being ipsapirone and revospirone analogues” (Bioorg Med Chem Lett, 2021).

One may read the Ki as a dissociation constant, usually derived from enzyme kinetics or from competition with a known ligand. A low value points to a stronger hold on the target.

For assay [1], the target named is T1, 5-hydroxytryptamine receptor 1A (Homo sapiens, UniProt P08908).
T1 sequence (P08908 whole entry): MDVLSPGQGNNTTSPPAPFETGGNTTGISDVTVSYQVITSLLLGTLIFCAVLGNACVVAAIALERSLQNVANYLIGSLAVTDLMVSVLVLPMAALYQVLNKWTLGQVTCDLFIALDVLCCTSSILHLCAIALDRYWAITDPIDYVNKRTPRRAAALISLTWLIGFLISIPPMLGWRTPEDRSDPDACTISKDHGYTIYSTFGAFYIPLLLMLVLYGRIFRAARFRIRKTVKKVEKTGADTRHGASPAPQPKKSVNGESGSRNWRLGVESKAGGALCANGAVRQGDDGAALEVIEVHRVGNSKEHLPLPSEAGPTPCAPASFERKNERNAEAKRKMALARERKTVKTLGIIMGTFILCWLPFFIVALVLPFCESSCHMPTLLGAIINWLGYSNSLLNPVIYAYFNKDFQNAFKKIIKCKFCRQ
Put plainly: Displacement of [3H]-[…] from human 5-HT1AR expressed in human HEK293 cells. Format: cell-based. On the technique in general: Loss of bound radioactivity is the signal in a displacement assay; it reports binding, not function.

The next assay concerns the target D(2) dopamine receptor (Homo sapiens, UniProt P14416). The assay can be described thus: Displacement of [3H]-raclopride from human D2R expressed in human HEK293 cells. Type of assay: cell-based.
Assay [2] concerns the target 5-hydroxytryptamine receptor 7 (Homo sapiens, UniProt P34969). The assay can be described thus: Displacement of [3H]-5CT from human 5-HT7R expressed in human HEK293 cells. Type of assay: cell-based.
Assay [3] addresses 5-hydroxytryptamine receptor 2A (Homo sapiens, UniProt P28223). Put plainly: Displacement of [3H]-ketanserin from human 5-HT2AR expressed in CHO cells. Format: cell-based.
Assay [4] has as its target 5-hydroxytryptamine receptor 6 (Homo sapiens, UniProt P50406). Put plainly: Displacement of [3H]-LSD from human 5-HT6R expressed in human HEK293 cells. Format: cell-based.
The next assay has as its target T2, D(4) dopamine receptor (Homo sapiens, UniProt P21917).
T2 sequence (P21917 whole entry): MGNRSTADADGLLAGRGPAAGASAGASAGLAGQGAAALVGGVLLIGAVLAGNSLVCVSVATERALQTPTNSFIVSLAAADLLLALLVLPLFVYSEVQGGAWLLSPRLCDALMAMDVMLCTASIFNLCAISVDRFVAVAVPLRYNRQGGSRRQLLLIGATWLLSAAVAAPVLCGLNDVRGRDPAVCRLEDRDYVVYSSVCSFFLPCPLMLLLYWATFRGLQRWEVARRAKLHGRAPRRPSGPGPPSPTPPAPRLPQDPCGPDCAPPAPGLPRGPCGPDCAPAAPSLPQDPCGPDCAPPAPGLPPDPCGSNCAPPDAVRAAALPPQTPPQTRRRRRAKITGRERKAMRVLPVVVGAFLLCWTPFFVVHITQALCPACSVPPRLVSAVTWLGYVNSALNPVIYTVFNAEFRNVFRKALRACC
Put plainly: Binding affinity to human D4R.

Sequence of 5-hydroxytryptamine receptor 2A (P28223 whole entry): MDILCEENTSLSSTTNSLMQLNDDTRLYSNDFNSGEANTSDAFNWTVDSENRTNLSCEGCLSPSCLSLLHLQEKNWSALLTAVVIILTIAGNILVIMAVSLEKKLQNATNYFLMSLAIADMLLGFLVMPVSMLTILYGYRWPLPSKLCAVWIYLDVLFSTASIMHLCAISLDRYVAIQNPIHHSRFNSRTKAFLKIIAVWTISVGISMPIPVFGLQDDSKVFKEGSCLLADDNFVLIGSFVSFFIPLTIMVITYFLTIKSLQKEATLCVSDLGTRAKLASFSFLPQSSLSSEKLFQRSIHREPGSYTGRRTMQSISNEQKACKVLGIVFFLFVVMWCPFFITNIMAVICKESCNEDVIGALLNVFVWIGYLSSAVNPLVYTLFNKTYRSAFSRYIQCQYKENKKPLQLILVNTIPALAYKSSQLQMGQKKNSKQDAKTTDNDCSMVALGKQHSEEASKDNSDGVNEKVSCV
Sequence of 5-hydroxytryptamine receptor 6 (P50406 whole entry): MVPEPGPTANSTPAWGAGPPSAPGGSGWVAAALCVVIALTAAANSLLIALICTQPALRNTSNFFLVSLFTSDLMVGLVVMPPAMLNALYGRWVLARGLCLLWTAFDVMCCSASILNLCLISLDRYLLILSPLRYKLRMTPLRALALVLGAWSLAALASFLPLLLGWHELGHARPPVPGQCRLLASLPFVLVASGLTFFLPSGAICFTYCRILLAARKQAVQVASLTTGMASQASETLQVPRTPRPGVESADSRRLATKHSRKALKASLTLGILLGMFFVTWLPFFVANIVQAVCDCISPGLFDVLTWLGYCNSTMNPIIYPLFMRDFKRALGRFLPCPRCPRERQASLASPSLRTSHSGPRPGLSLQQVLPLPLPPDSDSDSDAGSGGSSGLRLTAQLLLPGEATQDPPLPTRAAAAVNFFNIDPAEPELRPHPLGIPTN
Sequence of D(2) dopamine receptor (P14416 whole entry): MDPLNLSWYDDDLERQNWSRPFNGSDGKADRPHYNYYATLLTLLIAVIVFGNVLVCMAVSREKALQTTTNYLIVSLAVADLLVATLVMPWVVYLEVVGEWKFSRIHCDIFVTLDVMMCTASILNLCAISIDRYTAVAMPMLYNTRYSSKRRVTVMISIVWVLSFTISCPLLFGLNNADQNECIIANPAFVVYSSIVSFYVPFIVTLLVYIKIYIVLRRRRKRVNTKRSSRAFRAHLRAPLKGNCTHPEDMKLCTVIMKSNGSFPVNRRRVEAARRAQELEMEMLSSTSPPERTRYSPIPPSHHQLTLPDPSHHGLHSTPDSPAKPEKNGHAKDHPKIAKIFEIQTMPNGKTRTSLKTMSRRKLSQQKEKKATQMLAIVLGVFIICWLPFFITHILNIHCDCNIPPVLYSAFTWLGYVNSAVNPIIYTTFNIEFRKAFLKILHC
Sequence of 5-hydroxytryptamine receptor 7 (P34969 whole entry): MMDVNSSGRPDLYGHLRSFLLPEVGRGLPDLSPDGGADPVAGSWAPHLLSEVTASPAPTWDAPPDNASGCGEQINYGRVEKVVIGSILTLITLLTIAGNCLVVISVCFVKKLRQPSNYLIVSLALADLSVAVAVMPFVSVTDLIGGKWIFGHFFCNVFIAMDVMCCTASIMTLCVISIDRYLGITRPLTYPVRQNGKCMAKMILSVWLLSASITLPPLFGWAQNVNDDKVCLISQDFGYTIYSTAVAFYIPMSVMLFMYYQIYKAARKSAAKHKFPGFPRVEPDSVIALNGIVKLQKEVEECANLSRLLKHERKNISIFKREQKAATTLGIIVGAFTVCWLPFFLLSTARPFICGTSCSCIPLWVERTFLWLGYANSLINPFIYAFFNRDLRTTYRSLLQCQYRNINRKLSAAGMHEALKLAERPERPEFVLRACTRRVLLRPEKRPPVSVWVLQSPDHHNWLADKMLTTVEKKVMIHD

Regarding `COc1cccc(N2CCN(CCCCn3c(=O)oc4ccccc4c3=O)CC2)c1`, in assay [1], the Ki worked out at 3.2 nM.
In assay [1], `COc1cccc(N2CCN(CCCCCOc3ccccc3C(N)=O)CC2)c1` displayed a Ki of 4 nM.
On to `O=C1c2ccccc2S(=O)(=O)N1CCCCN1CCN(c2cccc(Cl)c2Cl)CC1`, for which the Ki was determined as 1 nM in assay [1]; 26 nM at D(2) dopamine receptor; 372 nM in assay [2]; 2580 nM in assay [3]; 2660 nM in assay [4].
`O=C1c2ccccc2S(=O)(=O)N1CCCCCN1CCN(c2ccccc2)CC1`: the Ki came out at 16 nM in assay [1]; 165 nM on D(2) dopamine receptor; 148 nM in assay [2]; 313 nM in assay [3]; 1840 nM in assay [4].
In assay [1], `O=C1c2ccccc2S(=O)(=O)N1CCCN1CCN(c2ncccn2)CC1` [REVOSPIRONE] came in with a Ki of 2 nM.
Same read-out and setting: in the case of `COc1cccc(N2CCN(CCCCCCn3c(=O)oc4ccccc4c3=O)CC2)c1` it was 18 nM; in that of `COc1cccc(N2CCN(CCCCCn3c(=O)oc4ccccc4c3=O)CC2)c1`, 20 nM; in that of `COc1cccc(N2CCN(CCN3C(=O)c4ccccc4C3=O)CC2)c1`, over 1000 nM.
Regarding `O=c1oc2ccccc2c(=O)n1CCCCN1CCN(c2ccccc2)CC1`, the Ki in assay [1] was determined as 2.8 nM.
With `O=C1c2ccccc2S(=O)(=O)N1CCCCCCN1CCN(c2ncccn2)CC1`, the Ki was determined as 2510 nM in assay [2] and 5710 nM in assay [4].
With `COc1ccccc1N1CCN(CCCCCCN2C(=O)c3ccccc3S2(=O)=O)CC1`, the Ki in assay [1] amounted to 10 nM; on D(2) dopamine receptor it was 1 nM; in assay [2] it was 105 nM; in assay [3], 764 nM; in assay [4] it was 779 nM.
With `O=C1c2ccccc2S(=O)(=O)N1CCCCCCN1CCN(c2cccc(Cl)c2Cl)CC1`, the Ki came out at 487 nM in assay [2], 299 nM in assay [3] and 72 nM in assay [4].
`O=C1c2ccccc2S(=O)(=O)N1CCCCCN1CCN(c2cccc3ccccc23)CC1`: the Ki in assay [1] was 16 nM; on D(2) dopamine receptor, 20 nM; in assay [2], 36 nM; in assay [3] it was 105 nM; in assay [4], 101 nM.
Regarding `COc1ccccc1N1CCN(CCCCCCOc2ccccc2C(N)=O)CC1`, affinity in assay [1] was put at a Ki of 3 nM.
Take `O=C1c2ccccc2S(=O)(=O)N1CCCCCN1CCN(c2cccc(Cl)c2Cl)CC1`: the Ki in assay [1] was determined as 29 nM; at D(2) dopamine receptor, 17 nM; in assay [2], 149 nM; in assay [3], 126 nM; in assay [4], 197 nM.
In assay [1], `O=C1c2ccccc2S(=O)(=O)N1CCN1CCN(c2cccc(C(F)(F)F)c2)CC1` displayed a Ki of over 5000 nM.
Still for that read-out and setting: in the case of `O=C1c2ccccc2C(=O)N1CCCCCCN1CCN(c2ccccc2)CC1` it was 1 nM; in that of `COc1cccc(N2CCN(CCCn3c(=O)oc4ccccc4c3=O)CC2)c1`, 46 nM.
On the same count and under the same terms, under `COc1ccccc1N1CCN(CCCCCCN2C(=O)c3ccccc3C2=O)CC1` stands 22 nM.
In the case of `COc1cccc(N2CCN(CCCCOc3ccccc3C(N)=O)CC2)c1`, the affinity in assay [1] corresponds to a Ki of 38 nM.
At D(4) dopamine receptor, `O=C1c2ccccc2S(=O)(=O)N1CCCCN1CCN(c2ccc(Cl)cc2)CC1` displayed a Ki of 36 nM.
The compound `COc1cccc(N2CCN(CCCOc3ccccc3C(N)=O)CC2)c1` came in with an inhibition constant (Ki) in assay [1] of 21 nM.
Still for that read-out and setting: under `COc1ccccc1N1CCN(CCCCCN2C(=O)c3ccccc3C2=O)CC1` stands 7.2 nM.
On the same count and under the same terms, under `O=C1c2ccccc2C(=O)N1CCCCN1CCN(c2ccccc2)CC1` stands 10 nM; under `NC(=O)c1ccccc1OCCCN1CCN(c2ccccc2)CC1`, 143 nM.
Consider `O=C1c2ccccc2S(=O)(=O)N1CCCCN1CCN(c2ccccc2)CC1`, for which, at D(4) dopamine receptor, affinity was put at a Ki of 136 nM.
`O=C1c2ccccc2S(=O)(=O)N1CCCCCN1CCN(c2ncccn2)CC1`: the Ki in assay [1] was 6 nM; at D(2) dopamine receptor, 954 nM; in assay [2], 2670 nM; in assay [3] it was 6310 nM; in assay [4] it was 7100 nM.
As to `O=C1c2ccccc2S(=O)(=O)N1CCCCCN1CCN(c2ccc(Cl)cc2)CC1`, the Ki in assay [1] was found to be 101 nM; at D(2) dopamine receptor, 254 nM; in assay [2], 191 nM; in assay [3], 139 nM; in assay [4], 703 nM.
In the same order, the values of `COc1ccccc1N1CCN(CCCCCN2C(=O)c3ccccc3S2(=O)=O)CC1` are 3 nM, 20 nM, 125 nM, 584 nM and 1990 nM.
In the case of `O=C1c2ccccc2S(=O)(=O)N1CCCCCCN1CCN(c2ccc(Cl)cc2)CC1`, the Ki came out at 487 nM in assay [2], 299 nM in assay [3] and 72 nM in assay [4].
For the compound `O=C1c2ccccc2S(=O)(=O)N1CCCCCN1CCN(c2cccc(C(F)(F)F)c2)CC1`, the Ki in assay [1] was found to be 21 nM; on D(2) dopamine receptor, 34 nM; in assay [2], 35 nM; in assay [3], 162 nM; in assay [4], 1350 nM.
In assay [1], `O=c1oc2ccccc2c(=O)n1CCCN1CCN(c2ccccc2)CC1` gave a Ki of 402 nM.
`COc1ccccc1N1CCN(CCCCN2C(=O)c3ccccc3S2(=O)=O)CC1` showed a Ki on D(4) dopamine receptor of 79 nM.
`O=C1c2ccccc2C(=O)N1CCN1CCN(c2ccccc2)CC1` had a Ki in assay [1] of over 1000 nM.
Take `O=C1c2ccccc2C(=O)N1CCCCCN1CCN(c2ccccc2)CC1`: the Ki in assay [1] was found to be 8.5 nM.
Still for that read-out and setting: in the case of `O=C1c2ccccc2C(=O)N1CCCN1CCN(c2ccccc2)CC1` it was 200 nM.
Consider `COc1ccccc1N1CCN(Cc2ccc(CN3C(=O)c4ccccc4S3(=O)=O)cc2)CC1`, for which the Ki in assay [1] stood at 77 nM; at D(2) dopamine receptor it was 2 nM; in assay [2] it was 97 nM; in assay [3], 4750 nM; in assay [4], 10100 nM.
In turn, `COc1cccc(N2CCN(CCOc3ccccc3C(N)=O)CC2)c1` had a Ki in assay [1] of 155 nM.
In the case of `O=C1c2ccccc2S(=O)(=O)N1CCCCCN1CCN(c2ccccn2)CC1`, the Ki in assay [1] turned out to be 13 nM; on D(2) dopamine receptor, 92 nM; in assay [2] it was 179 nM; in assay [3], 1440 nM; in assay [4] it was 2630 nM.
Consider `COc1cccc(N2CCN(CCCN3C(=O)c4ccccc4C3=O)CC2)c1`, for which the Ki in assay [1] was 13 nM.
